Reference: the supplement of paper PMC12317010
Counter-ions that a name gives are not always drawn.

Test: collision cross section in nitrogen (drift tube, single-field); higher = larger gas-phase ion size
[1] = ion type: [M+H], ion source: APCI, ion mode: Positive
[2] = ion type: [M+H], ion source: ESI, ion mode: Positive
[3] = ion type: [M+Na], ion source: ESI, ion mode: Positive
[4] = ion type: [M-H], ion source: ESI, ion mode: Negative
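Further: chemical standards at 10 µM analysed by drift tube IMS-QTOF MS in about 3.95 torr nitrogen, mean of duplicate injections differing ≤1%, mass error below 10 ppm.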

## CCc1c(C)cc(N)c(CC)c1N [Diethylmethylbenzenediamine]
[1]
  collision cross section in nitrogen: 140.6 Å²
[2]
  collision cross section in nitrogen: 141.3 Å²
[3]
  collision cross section in nitrogen: 145.3 Å²

## CCC(=O)Oc1ccc(/C(CC)=C(\CC)c2ccc(OC(=O)CC)cc2)cc1 [Diethylstilbestrol dipropionate]
[3]
  collision cross section in nitrogen: 193.9 Å²

## CC/C(=C(/CC)c1ccc(O)cc1)c1ccc(O)cc1 [Diethylstilbestrol]
[4]
  collision cross section in nitrogen: 176.2 Å²

## Cn1c(-c2ccccc2)cc(-c2ccccc2)[n+]1C [Difenzoquat metilsulfate]
Ion source: APCI, ion mode: Positive, ion type: [M]+ (permanent cation)
  collision cross section in nitrogen: 160 Å²
Ion source: ESI, ion mode: Positive, ion type: [M]+ (permanent cation)
  collision cross section in nitrogen: 160.8 Å²

## O=C(NC(=O)c1c(F)cccc1F)Nc1ccc(Cl)cc1 [Diflubenzuron]
[3]
  collision cross section in nitrogen: 177.4 Å²
[4]
  collision cross section in nitrogen: 169.5 Å²

## O=C(Nc1ccc(F)cc1F)c1cccnc1Oc1cccc(C(F)(F)F)c1 [Diflufenican]
[1]
  collision cross section in nitrogen: 184.7 Å²
[2]
  collision cross section in nitrogen: 189.1 Å²
[4]
  collision cross section in nitrogen: 180.6 Å²

## CC(=NNC(=O)Nc1cc(F)cc(F)c1)c1ncccc1C(=O)O [Diflufenzopyr-sodium]
[3]
  collision cross section in nitrogen: 182.3 Å²

## CC(=NNC(=O)Nc1cc(F)cc(F)c1)c1ncccc1C(=O)O [Diflufenzopyr]
[3]
  collision cross section in nitrogen: 181.6 Å²

## COc1ccc(-n2nc(C(F)F)cc2-c2ccc(S(C)=O)cc2)cc1 (stereo not given) [Difpas-pyrazole]
[1]
  collision cross section in nitrogen: 187.8 Å²
[2]
  collision cross section in nitrogen: 187.4 Å²

## C[C@]12CC[C@H](O)C[C@H]1CC[C@@H]1[C@@H]2C[C@@H](O)[C@]2(C)[C@@H](C3=CC(=O)OC3)CC[C@]12O [Digoxigenin]
[3]
  collision cross section in nitrogen: 220.7 Å²

## C[C@H]1O[C@@H](O[C@H]2[C@@H](O)C[C@H](O[C@H]3[C@@H](O)C[C@H](O[C@H]4CC[C@@]5(C)[C@H](CC[C@@H]6[C@@H]5C[C@@H](O)[C@]5(C)[C@@H](C7=CC(=O)OC7)CC[C@]65O)C4)O[C@@H]3C)O[C@@H]2C)C[C@H](O)[C@@H]1O [Digoxin]
[3]
  collision cross section in nitrogen: 276.8 Å²
[4]
  collision cross section in nitrogen: 269.7 Å²

## CCCCCCCOC(=O)c1ccccc1C(=O)OCCCCCCC [Diheptyl phthalate]
[3]
  collision cross section in nitrogen: 209.9 Å²

## CCCCCCOC(=O)CCCCC(=O)OCCCCCC [Dihexyl hexanedioate]
[3]
  collision cross section in nitrogen: 202.5 Å²

## CCCCCCOC(=O)CCCCCCCC(=O)OCCCCCC [Dihexyl nonanedioate]
[3]
  collision cross section in nitrogen: 210.8 Å²

## CCCCCCOC(=O)c1ccccc1C(=O)OCCCCCC [Dihexyl phthalate]
[3]
  collision cross section in nitrogen: 202.6 Å²

## Cc1ccc(S(=O)(=O)C(I)I)cc1 [Diiodomethyl 4-methylphenyl sulfone]
[4]
  collision cross section in nitrogen: 151.9 Å²

## CC(C)COC(=O)CCCCC(=O)OCC(C)C [Diisobutyl adipate]
[3]
  collision cross section in nitrogen: 179.8 Å²

## CC(C)COC(=O)c1ccccc1C(=O)OCC(C)C [Diisobutyl phthalate]
[3]
  collision cross section in nitrogen: 181.8 Å²

## CC(C)CCCCCCCOC(=O)c1ccccc1C(=O)OCCCCCCCC(C)C [Diisodecyl phthalate]
[3]
  collision cross section in nitrogen: 226.5 Å²

## CC(C)CCCCCCOC(=O)CCCCC(=O)OCCCCCCC(C)C [Diisononyl adipate]
[3]
  collision cross section in nitrogen: 219.4 Å²

## CC(C)CCCCCCOC(=O)C1CCCCC1C(=O)OCCCCCCC(C)C (stereo not given) [Diisononyl cyclohexane-1,2-dicarboxylate]
[3]
  collision cross section in nitrogen: 220.8 Å²

## CC(O)CNCC(C)O (stereo not given) [Diisopropanolamine]
[2]
  collision cross section in nitrogen: 128.2 Å²

## CC(C)OC(=O)c1ccccc1C(=O)OC(C)C [Diisopropyl phthalate]
[3]
  collision cross section in nitrogen: 169.9 Å²

## CC(C)(C)c1n[nH]c(=O)n(N)c1=O [Diketometribuzin]
[4]
  collision cross section in nitrogen: 139.3 Å²

## COc1ccc([C@@H]2Sc3ccccc3N(CCN(C)C)C(=O)[C@@H]2OC(C)=O)cc1 [Diltiazem hydrochloride]
[2]
  collision cross section in nitrogen: 197.8 Å²
[3]
  collision cross section in nitrogen: 203.2 Å²

## CCNc1nc(NC(C)C(C)C)nc(SC)n1 (stereo not given) [Dimethametryn]
[1]
  collision cross section in nitrogen: 165.4 Å²
[2]
  collision cross section in nitrogen: 165 Å²
[4]
  collision cross section in nitrogen: 166.9 Å²

## COCC(C)N(C(=O)CCl)c1c(C)csc1C (stereo not given) [Dimethenamid]
[1]
  collision cross section in nitrogen: 155.2 Å²
[2]
  collision cross section in nitrogen: 155.9 Å²
[3]
  collision cross section in nitrogen: 167.9 Å²

## COc1ccc(C(=CC(=O)N2CCOCC2)c2ccc(Cl)cc2)cc1OC [Dimethomorph]
[1]
  collision cross section in nitrogen: 200.7 Å²
[2]
  collision cross section in nitrogen: 199.2 Å²
[3]
  collision cross section in nitrogen: 208 Å²

## COC(=O)CCSCCC(=O)OC [Dimethyl 3,3'-thiodipropionate]
[3]
  collision cross section in nitrogen: 146.5 Å²

## COP(=O)(CCC(=O)NCO)OC [Dimethyl (3-((hydroxymethyl)amino)-3-oxopropyl)phosphonate]
[3]
  collision cross section in nitrogen: 144 Å²

## COC(=O)CCCCCCCC(=O)OC [Dimethyl nonanedioate]
[3]
  collision cross section in nitrogen: 155.6 Å²

## COP(=O)(O)OC [Dimethyl phosphate]
[4]
  collision cross section in nitrogen: 120.6 Å²

## Cc1cc(OC(=O)N(C)C)nn1C(=O)N(C)C [Dimetilan]
[1]
  collision cross section in nitrogen: 152.5 Å²
[2]
  collision cross section in nitrogen: 153.1 Å²
[3]
  collision cross section in nitrogen: 157.9 Å²
